Molecules are shown by their SMILES.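 How tested: cells in 96-well plates exposed to compound for 48 hours at five concentrations. TGI is the concentration that stops growth completely.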

In the first experiment the test system is NCI-H23 lung. Put plainly: inhibition of tumour cell growth, NCI panel, 48 h.
Consider `CCc1nn(CN2CCOCC2)c(=S)n1/N=C/c1ccc(-c2ccc(Cl)cc2)o1`, for which the TGI is more than 100 µM.
Same read-out and setting: under `COc1cc(C2SCC(=O)N2c2cccc(Cl)c2)cc(OC)c1OC` (stereo unspecified) stands more than 100 µM; under `CCOC(=O)c1c(C)nc2c1c(CN(C)C)c(O)c1[nH]c(C)c(C)nc12`, 89.3 µM; under `CC(=O)C1C(=O)C(=O)N(c2cccc([N+](=O)[O-])c2)C1=O` (stereo unspecified), more than 100 µM.
Compound `CCN(CC)CC1CCCCN1CC(=O)N1c2ccccc2C(=O)Nc2cccnc21` (stereo unspecified) yielded a TGI of more than 100 µM.
In the case of `C=CC[C@@H](N)C(=O)N(C)[C@@H](C)[C@@H](O)c1ccccc1`, the TGI is more than 100 µM.
`N#Cc1sc2c(c1OC(=O)c1ccccc1)c(=O)n(-c1ccccc1)c(=S)n2-c1ccccc1`: the TGI is 58.9 µM.
The compound `O=C(NC1=C(Cl)C(=O)c2ccccc2C1=O)c1ccc(F)cc1` came in with a TGI of 13.7 µM.

The next experiment concerns RPMI-8226 leukemia. Briefly: inhibition of tumour cell growth, NCI panel, 48 h.
In the case of `COC(=O)[C@@H]1[C@H](OC(C)=O)CCC2[C@@]3(C[C@@H](c4ccoc4)O[C@@H]3OC)[C@H](C)CC[C@]21C(=O)OC` (stereo partly specified), the TGI was more than 25 µM.
`CC(C)(C)OC(=O)NC(Cc1ccccc1)OCc1ccccc1` (stereo unspecified) had a TGI of 72.6 µM.
On the same count and under the same terms, under `CN1c2ccccc2C(=O)NC12CCN(CCCC(=O)c1ccc(F)cc1)CC2` stands more than 100 µM.
On the same count and under the same terms, the figure for `NC(N)=NCC[C@H](NC(=O)OCCCCCn1ccc(=O)[nH]c1=O)C(=O)O` is more than 100 µM; for `O=C(c1ccccc1)c1ccc2nc(-c3c(Cl)c(Cl)c(Cl)c(Cl)c3C(=O)N/N=C/c3ccc(Cl)cc3)[nH]c2c1` it is 51.3 µM; for `CCc1nn(CN2CCOCC2)c(=S)n1/N=C/c1ccc(-c2ccc(Cl)cc2)o1` it is more than 100 µM.
Same read-out and setting: the figure for `COc1cc(C2SCC(=O)N2c2cccc(Cl)c2)cc(OC)c1OC` (stereo unspecified) is more than 100 µM.
The compound `CCOC(=O)c1c(C)nc2c1c(CN(C)C)c(O)c1[nH]c(C)c(C)nc12` showed a TGI of 43.8 µM.
`CCN(CC)CC1CCCCN1CC(=O)N1c2ccccc2C(=O)Nc2cccnc21` (stereo unspecified) came in with a TGI of 74.2 µM.
`N#Cc1sc2c(c1OC(=O)c1ccccc1)c(=O)n(-c1ccccc1)c(=S)n2-c1ccccc1` gave a TGI of 66.5 µM.
Consider `O=C(NC1=C(Cl)C(=O)c2ccccc2C1=O)c1ccc(F)cc1`, for which the TGI was more than 100 µM.

The subject of a further experiment is HS 578T breast. Briefly: inhibition of tumour cell growth, NCI panel, 48 h.
With `COC(=O)[C@@H]1[C@H](OC(C)=O)CCC2[C@@]3(C[C@@H](c4ccoc4)O[C@@H]3OC)[C@H](C)CC[C@]21C(=O)OC` (stereo partly specified), the TGI is more than 25 µM.
Same read-out and setting: the figure for `Cc1n[nH]c(=O)n1N1C(=O)CCCC1=O` is more than 100 µM.
On the same count and under the same terms, under `CC(C)(C)OC(=O)NC(Cc1ccccc1)OCc1ccccc1` (stereo unspecified) stands 51.5 µM; under `CN1c2ccccc2C(=O)NC12CCN(CCCC(=O)c1ccc(F)cc1)CC2`, more than 100 µM.
`NC(N)=NCC[C@H](NC(=O)OCCCCCn1ccc(=O)[nH]c1=O)C(=O)O` came in with a TGI of more than 100 µM.
For `O=C(c1ccccc1)c1ccc2nc(-c3c(Cl)c(Cl)c(Cl)c(Cl)c3C(=O)N/N=C/c3ccc(Cl)cc3)[nH]c2c1`, the TGI is more than 100 µM.
`CCc1nn(CN2CCOCC2)c(=S)n1/N=C/c1ccc(-c2ccc(Cl)cc2)o1`: the TGI is more than 100 µM.
Compound `COc1cc(C2SCC(=O)N2c2cccc(Cl)c2)cc(OC)c1OC` (stereo unspecified) registered a TGI of more than 100 µM.
With `CCOC(=O)c1c(C)nc2c1c(CN(C)C)c(O)c1[nH]c(C)c(C)nc12`, the TGI stood at 70.8 µM.
The same measure, in the same setting: under `CC(=O)C1C(=O)C(=O)N(c2cccc([N+](=O)[O-])c2)C1=O` (stereo unspecified) stands more than 100 µM; under `CCN(CC)CC1CCCCN1CC(=O)N1c2ccccc2C(=O)Nc2cccnc21` (stereo unspecified), more than 100 µM.
Still for that read-out and setting: the figure for `C=CC[C@@H](N)C(=O)N(C)[C@@H](C)[C@@H](O)c1ccccc1` is more than 100 µM.
`N#Cc1sc2c(c1OC(=O)c1ccccc1)c(=O)n(-c1ccccc1)c(=S)n2-c1ccccc1` yielded a TGI of 52.2 µM.
For `O=C(NC1=C(Cl)C(=O)c2ccccc2C1=O)c1ccc(F)cc1`, the TGI was found to be 64.7 µM.

The next experiment concerns SNB-19 CNS. Briefly: inhibition of tumour cell growth, NCI panel, 48 h.
As for `COC(=O)[C@@H]1[C@H](OC(C)=O)CCC2[C@@]3(C[C@@H](c4ccoc4)O[C@@H]3OC)[C@H](C)CC[C@]21C(=O)OC` (stereo partly specified), the TGI was more than 25 µM.
Same read-out and setting: the figure for `CC(C)(C)OC(=O)NC(Cc1ccccc1)OCc1ccccc1` (stereo unspecified) is 37.7 µM.
In the case of `NC(N)=NCC[C@H](NC(=O)OCCCCCn1ccc(=O)[nH]c1=O)C(=O)O`, the TGI is more than 100 µM.
`O=C(c1ccccc1)c1ccc2nc(-c3c(Cl)c(Cl)c(Cl)c(Cl)c3C(=O)N/N=C/c3ccc(Cl)cc3)[nH]c2c1` yielded a TGI of more than 100 µM.
The same measure, in the same setting: under `COc1cc(C2SCC(=O)N2c2cccc(Cl)c2)cc(OC)c1OC` (stereo unspecified) stands more than 100 µM; under `CCOC(=O)c1c(C)nc2c1c(CN(C)C)c(O)c1[nH]c(C)c(C)nc12`, more than 100 µM.
The same measure, in the same setting: the figure for `CC(=O)C1C(=O)C(=O)N(c2cccc([N+](=O)[O-])c2)C1=O` (stereo unspecified) is more than 100 µM; for `CCN(CC)CC1CCCCN1CC(=O)N1c2ccccc2C(=O)Nc2cccnc21` (stereo unspecified) it is more than 100 µM; for `C=CC[C@@H](N)C(=O)N(C)[C@@H](C)[C@@H](O)c1ccccc1` it is more than 100 µM.
On to `N#Cc1sc2c(c1OC(=O)c1ccccc1)c(=O)n(-c1ccccc1)c(=S)n2-c1ccccc1`, for which the TGI is more than 100 µM.
For `O=C(NC1=C(Cl)C(=O)c2ccccc2C1=O)c1ccc(F)cc1`, the TGI was 17.3 µM.

The next experiment deals with MALME-3M melanoma. Briefly: inhibition of tumour cell growth, NCI panel, 48 h.
`Cc1n[nH]c(=O)n1N1C(=O)CCCC1=O` had a TGI of more than 100 µM.
With `CC(C)(C)OC(=O)NC(Cc1ccccc1)OCc1ccccc1` (stereo unspecified), the TGI was 44.2 µM.
For the compound `CN1c2ccccc2C(=O)NC12CCN(CCCC(=O)c1ccc(F)cc1)CC2`, the TGI worked out at 86.5 µM.
The compound `NC(N)=NCC[C@H](NC(=O)OCCCCCn1ccc(=O)[nH]c1=O)C(=O)O` registered a TGI of more than 100 µM.
For the compound `O=C(c1ccccc1)c1ccc2nc(-c3c(Cl)c(Cl)c(Cl)c(Cl)c3C(=O)N/N=C/c3ccc(Cl)cc3)[nH]c2c1`, the TGI was more than 100 µM.
Compound `CCOC(=O)c1c(C)nc2c1c(CN(C)C)c(O)c1[nH]c(C)c(C)nc12` yielded a TGI of 53.4 µM.
The compound `CCN(CC)CC1CCCCN1CC(=O)N1c2ccccc2C(=O)Nc2cccnc21` (stereo unspecified) yielded a TGI of more than 100 µM.

These data come from PubChem BioAssay (NCI).
